Reference: the supplement of paper PMC10883282
± gives the standard deviation of the averaged measurements.

Tested on: VA-ES-BJ
Test: relative viability vs DMSO control (72 h) (fraction); higher = more viable cells
Summary of the method: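 Serially diluted compound, 2.5 µl from source plates spanning 10 mM to 0.0002 mM, was added 24 h after sarcoma cell lines were seeded in 384-well plates at densities targeting 80–90% confluence. Plates then sat 72 h at 37 °C, 5% CO2, with 0.1% DMSO vehicle and a 5 µM positive control. Relative viability came from ATPLite as percent growth, averaged over up to triplicate wells, and was rescaled with 1 as full and 0 as none.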

| Structure (SMILES) | relative viability (0.00017 µM) | relative viability (0.00051 µM) | relative viability (0.00152 µM) | relative viability (0.00457 µM) | relative viability (0.01372 µM) | relative viability (0.04115 µM) | relative viability (0.1235 µM) | relative viability (0.3704 µM) | relative viability (1.111 µM) | relative viability (3.333 µM) | relative viability (10 µM) |
| --- | --- | --- | --- | --- | --- | --- | --- | --- | --- | --- | --- |
| Cc1ccc(F)c(NC(=O)Nc2ccc(-c3cccc4[nH]nc(N)c34)cc2)c1 [Linifanib] | 1.05 ± 0.022 | 1.07 ± 0.041 | 1.06 ± 0.03 | 1.07 ± 0.056 | 1.05 ± 0.025 | 1.08 ± 0.059 | 1.07 ± 0.046 | 1.06 ± 0.056 | 1.11 ± 0.063 | 1.11 ± 0.035 | 1.03 ± 0.047 |
| CNC(=O)c1ccc(-c2cnc3ncc(Cc4ccc5ncccc5c4)n3n2)cc1F [Capmatinib] | 1.06 ± 0.068 | 1.03 ± 0.042 | 1.01 ± 0.062 | 0.943 ± 0.04 | 0.87 ± 0.016 | 0.844 ± 0.03 | 0.839 ± 0.01 | 0.844 ± 0.017 | 0.878 ± 0.059 | 0.88 ± 0.035 | 0.855 ± 0.036 |
| CN1CCC(COc2cnc(-c3cccc(Cn4nc(-c5cccc(C#N)c5)ccc4=O)c3)nc2)CC1 [Tepotinib] | 1.07 ± 0.019 | 1.06 ± 0.021 | 1.02 ± 0.033 | 1.05 ± 0.044 | 1.02 ± 0.023 | 0.943 ± 0.044 | 0.869 ± 0.021 | 0.866 ± 0.04 | 0.869 ± 0.067 | 0.845 ± 0.045 | 0.869 ± 0.041 |
| N#CC[C@H](C1CCCC1)n1cc(-c2ncnc3[nH]ccc23)cn1 [Ruxolitinib] | 1.03 ± 0.03 | 1.05 ± 0.026 | 1.002 ± 0.01 | 1.006 ± 0.0095 | 1.02 ± 0.014 | 1.03 ± 0.024 | 0.987 ± 0.014 | 0.985 ± 0.025 | 0.969 ± 0.015 | 1 ± 0.03 | 0.8995 ± 0.0059 |
| CC(C)(C)c1cc(NC(=O)Nc2ccc(-c3cn4c(n3)sc3cc(OCCN5CCOCC5)ccc34)cc2)no1 [Quizartinib] | 1.06 ± 0.028 | 1.06 ± 0.038 | 1.05 ± 0.019 | 1.06 ± 0.032 | 1.05 ± 0.026 | 1.05 ± 0.038 | 1.02 ± 0.059 | 1.04 ± 0.03 | 1.02 ± 0.045 | 0.947 ± 0.022 | 0.831 ± 0.032 |
| COc1c(OCCCN2CCOCC2)ccc2c1N=C(NC(=O)c1cnc(N)nc1)N1CCN=C21 [Copanlisib] | 1.09 ± 0.027 | 0.983 ± 0.071 | 1.066 ± 0.0069 | 0.74 ± 0.026 | 0.594 ± 0.029 | 0.484 ± 0.017 | 0.42 ± 0.022 | 0.396 ± 0.041 | 0.406 ± 0.019 | 0.394 ± 0.095 | 0.304 ± 0.16 |
| Cc1ccc(NC(=O)c2ccc(CN3CCN(C)CC3)cc2)cc1Nc1nc(-c2cccnc2)cs1 [Masitinib] | 1.08 ± 0.016 | 1.078 ± 0.0055 | 1.05 ± 0.019 | 1.06 ± 0.033 | 1.08 ± 0.022 | 1.05 ± 0.013 | 1.02 ± 0.024 | 1.01 ± 0.038 | 0.897 ± 0.02 | 0.621 ± 0.016 | 0.177 ± 0.0072 |
| Cn1cc(-c2cc3c(N4CCN(c5ncc([C@@](C)(N)c6ccc(F)cc6)cn5)CC4)ncnn3c2)cn1 [Avapritinib] | 1.02 ± 0.013 | 1.01 ± 0.025 | 1 ± 0.013 | 1.01 ± 0.03 | 0.998 ± 0.057 | 0.993 ± 0.023 | 0.971 ± 0.039 | 0.98 ± 0.031 | 0.975 ± 0.011 | 0.956 ± 0.034 | 0.979 ± 0.028 |
| O=C(Cc1ccc(-c2ccc(OCCN3CCOCC3)cc2)cn1)NCc1ccccc1 [KX2-391] | 1.09 ± 0.045 | 1.06 ± 0.043 | 1.06 ± 0.021 | 1.05 ± 0.044 | 0.96 ± 0.032 | 0.584 ± 0.026 | 0.385 ± 0.021 | 0.368 ± 0.021 | 0.314 ± 0.015 | 0.29 ± 0.017 | 0.309 ± 0.018 |
| CO[C@H]1C[C@@H]2CC[C@@H](C)[C@@](O)(O2)C(=O)C(=O)N2CCCC[C@H]2C(=O)O[C@H]([C@H](C)C[C@@H]2CC[C@@H](OP(C)(C)=O)[C@H](OC)C2)CC(=O)[C@H](C)/C=C(\C)[C@@H](O)[C@@H](OC)C(=O)[C@H](C)C[C@H](C)/C=C/C=C/C=C/1C [Ridaforolimus] | 0.97 ± 0.051 | 0.889 ± 0.031 | 0.664 ± 0.016 | 0.602 ± 0.03 | 0.538 ± 0.018 | 0.509 ± 0.025 | 0.487 ± 0.03 | 0.459 ± 0.0073 | 0.48 ± 0.014 | 0.458 ± 0.026 | 0.45 ± 0.0084 |
| CCc1cc2c(cc1N1CCC(N3CCOCC3)CC1)C(C)(C)c1[nH]c3cc(C#N)ccc3c1C2=O [Alectinib] | 1.03 ± 0.047 | 1.07 ± 0.042 | 1.04 ± 0.057 | 1.04 ± 0.027 | 1.02 ± 0.041 | 1.06 ± 0.048 | 1.04 ± 0.0046 | 0.891 ± 0.27 | 0.912 ± 0.26 | 0.941 ± 0.24 | 0.905 ± 0.25 |
| C[C@@H](c1ccc2nccn2c1)n1nnc2ncc(-c3cnn(C)c3)nc21 [Volitinib] | 1.07 ± 0.067 | 1.07 ± 0.053 | 1.04 ± 0.062 | 1.02 ± 0.046 | 0.93 ± 0.043 | 0.868 ± 0.066 | 0.875 ± 0.03 | 0.879 ± 0.058 | 0.884 ± 0.048 | 0.873 ± 0.042 | 0.886 ± 0.048 |
| CC1(C)CNc2cc(NC(=O)c3cccnc3NCc3ccncc3)ccc21 [Motesanib] | 0.98 ± 0.021 | 0.982 ± 0.018 | 0.976 ± 0.041 | 1 ± 0.03 | 0.9877 ± 0.0081 | 1 ± 0.017 | 1.011 ± 0.0069 | 1.02 ± 0.022 | 1.04 ± 0.042 | 1.04 ± 0.024 | 1.03 ± 0.029 |
| CN1CCN(c2ccc3nc(-c4c(N)c5c(F)cccc5[nH]c4=O)[nH]c3c2)CC1 [Dovitinib] | 1.06 ± 0.027 | 1.06 ± 0.028 | 1.08 ± 0.044 | 1.08 ± 0.028 | 1.07 ± 0.029 | 1.06 ± 0.031 | 1.05 ± 0.025 | 0.956 ± 0.0053 | 0.738 ± 0.049 | 0.495 ± 0.021 | 0.313 ± 0.039 |
| CNC(=O)c1cc(Oc2ccc(NC(=O)Nc3ccc(Cl)c(C(F)(F)F)c3)c(F)c2)ccn1 [Regorafenib] | 1.13 ± 0.018 | 1.15 ± 0.032 | 1.1 ± 0.019 | 1.083 ± 0.0058 | 1.11 ± 0.035 | 1.08 ± 0.023 | 1.18 ± 0.048 | 1.19 ± 0.08 | 1.21 ± 0.072 | 1.24 ± 0.12 | 0.684 ± 0.048 |
| Cc1nc(NC(=O)N2CCC[C@H]2C(N)=O)sc1-c1ccnc(C(C)(C)C(F)(F)F)c1 [Alpelisib] | 1.062 ± 0.0069 | 1.03 ± 0.048 | 1.03 ± 0.022 | 0.992 ± 0.054 | 0.981 ± 0.04 | 0.94 ± 0.045 | 0.924 ± 0.045 | 0.833 ± 0.019 | 0.741 ± 0.021 | 0.61 ± 0.01 | 0.378 ± 0.011 |
| CCN1CCN(Cc2ccc(Nc3ncc(F)c(-c4cc(F)c5nc(C)n(C(C)C)c5c4)n3)nc2)CC1 [Abemaciclib] | 1.02 ± 0.014 | 1.03 ± 0.0088 | 1.015 ± 0.0082 | 1 ± 0.019 | 0.994 ± 0.037 | 0.92 ± 0.042 | 0.779 ± 0.032 | 0.694 ± 0.018 | 0.681 ± 0.023 | 0.562 ± 0.021 | 0.427 ± 0.056 |
| CC[C@H](Nc1ncnc2[nH]cnc12)c1nc2cccc(F)c2c(=O)n1-c1ccccc1 [Idelalisib] | 1.12 ± 0.01 | 1.12 ± 0.052 | 1.09 ± 0.015 | 1.09 ± 0.071 | 1.06 ± 0.03 | 1.07 ± 0.041 | 1.05 ± 0.026 | 1.03 ± 0.053 | 0.931 ± 0.041 | 0.872 ± 0.035 | 0.705 ± 0.038 |
| C=CC(=O)N1CCC[C@@H](n2nc(-c3ccc(Oc4ccccc4)cc3)c3c(N)ncnc32)C1 [Ibrutinib] | 1.09 ± 0.046 | 1.08 ± 0.035 | 1.08 ± 0.089 | 1.06 ± 0.026 | 1.08 ± 0.05 | 1.09 ± 0.044 | 1.07 ± 0.068 | 1.07 ± 0.092 | 1.13 ± 0.056 | 1.1 ± 0.036 | 0.989 ± 0.013 |
